| SMILES | melting point |
| --- | --- |
| CC1=Nc2cc3c(cc2C1(C)C)N=C(C)C3(C)C | 190 to 195 °C |
| Cc1cc(C(=O)OC2CC(C)(C)NC(C)(C)C2)c(C)o1 | 59 to 61 °C |
| CNN(NC)C(=O)Nc1cccc2c1C(=O)c1c-2n[nH]c1-c1ccco1 | 202 °C |
| CCOC(=O)N1CCC(Nc2ccc(Cl)cc2[N+](=O)[O-])CC1 | 116 °C |
| CCN1C(=O)c2cnc(-c3ccccc3)nc2N(C(=O)CN(C(C)C)C(C)C)c2ccccc21 | 120 to 121 °C |
| CCN(C)C1=NS(=O)(=O)c2ccc(Cl)cc2N1 | > 220 °C |
| CCN(CC)C(=O)CCc1nc(-c2cccc(C(F)(F)F)c2)nc2ccccc12 | 115 °C |
| Oc1ccc(C(=C(Cl)c2ccccc2)c2ccccc2)cc1 | 127 to 129 °C |
| CC1(C)Cc2c(N)c(Cl)cc(C(=O)NC3CCN(CCNc4nc(O)c5cc(Cl)ccc5n4)CC3)c2O1 | 207 °C |
| CCOC(=O)c1cn(-c2nc(NC(C)(C)C)c(F)cc2F)c2c(F)c(F)c(F)cc2c1=O | 174 to 178 °C |
| CS(=O)(=O)c1ccc(Br)cc1[N+](=O)[O-] | 175 to 177 °C |
| CSCc1sccc1S(=O)(=O)N(C)c1cccc2cc(-c3nccs3)[nH]c12 | 213 °C |
| CCCCN(CC)c1nc(C)nc2c1NC(=O)CN2c1ccc(C(C)C)cc1Br | 146 to 147 °C |
| Nc1ccc2c(c1)OCC(CN1CC=C(c3c[nH]c4ccc(F)cc34)CC1)O2 (stereo not given) | 172 to 174 °C |
| CC1(C)C(=NOCc2ccccc2)C(c2ccccc2)=C1c1ccc(S(C)(=O)=O)cc1 | 119 to 121 °C |
| CN1Cc2c(C(N)=O)ncn2-c2cccc(Br)c2C1=O | 278 to 279 °C |
| N#CCc1nc(C(=O)c2ccc(F)cc2)no1 | 78 to 80 °C |
| O=C(Oc1cccc2c(OC(=O)c3ccc(O)cc3)c3c(OC(=O)c4ccc(O)cc4)cccc3cc12)c1ccc(O)cc1 | 326 °C |
| Cn1nc(-c2ncc(Cl)cc2F)cc1OCC(F)(F)F | 72 to 73 °C |
| O=c1[nH]c2ccc(Cl)cc2c(-c2ccccc2)[n+]1[O-] | 267 to 269 °C |

| SMILES | melting point |
| --- | --- |
| CC(=O)N=NCc1ccc(OCCCCCOc2ccc(C(=O)N(c3ccccc3)C(C)C)c(Cl)c2)cc1 | 58 to 60 °C |
| CNc1cc2c(Nc3ccc(Sc4nccn4C)c(Cl)c3)c(C#N)cnc2cc1N1CCC(N2CCCC2)CC1 | 242 to 250 °C |
| Cc1ccc(-c2ccc3c(c2)C=C(C(=O)Nc2ccc(CN(C)C4CCSCC4)cc2)CO3)cc1 | 169 to 171 °C |
| Cc1onc(-c2ccccc2)c1-c1cc2ccccc2[nH]1 | 145 to 146 °C |
| COc1cc2c(c(OC)c1OC)-c1ccc(O)cc1[C@@H](NC(C)=O)CC2 | 157 °C |
| Cc1nnc(-c2ccc3ncn(-c4cccc(C(F)(F)F)c4)c3c2)o1 | 212 to 213 °C |
| O=C(CC1c2ccccc2C(=O)N1C1CCCCC1)N1CCCCC1 (stereo not given) | 158 to 160 °C |
| Cn1cc(-c2cccc([N+](=O)[O-])c2)c(=O)c(-c2cccc(C(F)(F)F)c2)c1 | 209 to 211 °C |
| O=S(CCCc1nc(-c2ccc(F)cc2)c(-c2ccncc2)[nH]1)c1ccccc1 (stereo not given) | 146 to 148 °C |
| CC(C)(C)C1NCc2ccccc2C1c1ccccc1 (stereo not given) | 79 to 81 °C |
| COc1ccccc1CC(C)NCC(O)c1cccc(Cl)c1 (stereo not given) | 85 to 87 °C |
| O=C(c1ccc(Cl)cc1)c1cc[nH]c1 | 118 to 120 °C |
| O=Cc1cn(C2CCc3ccccc3C2)c(=S)[nH]1 (stereo not given) | 206 to 210 °C |
| O=C(SCC(Cc1ccc(Cl)cc1)C(=O)O)c1ccccc1 (stereo not given) | 111 to 114 °C |
| CCCc1nc2c(N)nc(C)c(C)c2n1CC1(O)CCC1 | 180 to 181 °C |
| COC(=O)CCOc1ccc(C#N)cc1 | 51 °C |
| Cc1ccc2c(c1)c1cc(-c3cc(F)cc(F)c3)c(=O)n(C)c1n2C | 240 °C |
| COC(=O)c1c(C(F)F)nc(C(F)(F)F)c(C(=O)OC)c1OC(C)C | 41 to 42 °C |
| COCCN(C)Cc1ccc(NC(=O)C2=Cc3cc(-c4ccc(C)cc4)ccc3OCC2)cc1 | 121 to 122 °C |
| O=C1c2ccccc2S(=O)(=O)N1Cn1nnn(-c2ccccc2)c1=S | 140 to 142 °C |

Continued, values first:

| melting point | SMILES |
| --- | --- |
| 201 °C | CC(C)(C)OC(=O)Nc1cc(OC(C)(C)C)c(C#Cc2ccc(F)cc2)cc1[N+](=O)[O-] |
| 176 to 177 °C | COc1c(N2CCCC(NC(C)=O)C2)c(F)cc2c(=O)c(C(=O)O)cn(C3CC3)c12 (stereo not given) |
| 296 °C | COc1ccc(-c2nc(C(=O)c3ccc(N)c(C(=O)O)c3)n3ccccc23)cc1 |
| 122 to 123 °C | C=CCC1C(=O)c2cc(OC)ccc2C2CCC3(C)C(O)CCC3C12 (stereo not given) |
| 282 to 284 °C | COc1ccc(-c2nc(N)sc2-c2ccncc2)cc1 |
| 198 to 200 °C | CCOC(=O)c1csc(Nc2ccc(C)cn2)n1 |
| 133 to 135 °C | Cc1cc(Cl)ccc1-c1c(O)c(C)c(-c2ccccn2)oc1=O |
| 188 to 190 °C | CC(=O)N1N=C(C=Cc2ccc([N+](=O)[O-])cc2)c2cc3c(cc2CC1C)OCO3 (stereo not given) |
| 104 to 106 °C | COc1cc(C(=CC#N)c2ccc(OC)c(OC)c2)ccc1N |
| > 250 °C | CCOCc1nc2c(N)nc3cc(-c4cn[nH]c4)ccc3c2n1CC(C)(C)O |
| 62 to 64 °C | NCCCCc1cnc(-c2ccccc2)s1 |
| 263 to 264 °C | COC(=O)C1=C(C)Nc2nccn2C1c1cccc([N+](=O)[O-])c1 (stereo not given) |
| 110 to 112 °C | COc1ccccc1OCC1SCCN1C(=S)CC(=O)c1cc(OC)c(OC)c(OC)c1 (stereo not given) |
| 188 to 190 °C | O=c1[nH]cc(-c2cccnc2)nc1Cc1ccccc1 |
| 74 to 76 °C | COc1ccc(C#N)c2c1OC1(CCCC1)C2 |
| 143 °C | NS(=O)(=O)c1ccc(-c2ccc(F)cc2F)cc1 |
| 92 to 96 °C | COC(=O)CC[C@H]1CC[C@@H](n2c(C)nn(-c3ccc(C#N)cc3)c2=O)CC1 |
| 184 to 186 °C | CC(=O)Oc1ccc(CN/C=C2\C(=O)NC(=O)c3ccccc32)cc1OC(C)=O |
| 149 to 152 °C | CCOC(=O)c1cc(NCc2ccccc2)c(Nc2cccc(OC)c2)c(S(N)(=O)=O)c1 |
| 158 to 160 °C | CC[Si](C#Cc1ccc2nc(-n3ccnc3)nc(NCCOC)c2c1)(CC)CC |
| 235 to 236 °C | O=c1c(CCO)c(O)c2cccnc2n1-c1ccccc1 |
| 144 to 146 °C | COc1cc(C(=O)CCc2ccccc2)c2c(c1OC)C(=O)CC2 |
| 158 °C | COC(=O)CCC(=O)N(O)Cc1c(C)n(C(=O)c2ccc(Cl)cc2)c2ccc(OC)cc12 |
| 244 to 246 °C | COc1cc2ccc3c4cc(OCc5ccccc5)c(OC)cc4nnc3c2cc1OC |
| 248 to 249 °C | COC(=O)C(C)(C)c1ccc(C(=O)Nc2cn3cc(-c4cn[nH]c4)ccc3n2)cc1 |
| 154 °C | COc1ccncc1-c1cncc(OC2SCC(O)C(O)C2O)c1 (stereo not given) |
| 131 to 132 °C | COC(=O)c1nn(C2CCCCO2)cc1NC(=O)c1ccccn1 (stereo not given) |
| 111 to 112 °C | CC(C)(C)COS(=O)(=O)c1ccc(Oc2c(Cl)cccc2[N+](=O)[O-])cc1 |
| 175 to 176 °C | O=[N+]([O-])c1ccc(OCc2cscn2)cc1 |
| 259 to 260 °C | O=C(Nc1nc(-c2ccco2)c(C(=O)c2cc[nH]c2)s1)c1ccncc1 |
